Laboratory results published in US20150031668A1, “CHROMAN DERIVATIVES AS TRPM8 INHIBITORS” (AMGEN INC., priority 2013, published 2015).
Structures can show the parent of a compound that is named as a salt.

Molecular target: T1, human TRPM8 (Homo sapiens, UniProt Q7Z2W7)
T1 construct: expressed in transfected cells; host or cells: Chinese hamster ovary (CHO) cells, T-REx tetracycline-inducible expression system (Invitrogen); co-transfected with pcDNA3.1 aequorin
Assay: Luminescence readout assay for measuring intracellular calcium (aequorin, CHO cells expressing human TRPM8; icilin, L-menthol or cold activation)
Type: cell-based
Conditions: CHO cells expressing human TRPM8, icilin activation (1 μM), aequorin luminescence; read-out: hTRPM8 IC50
Experimental: Luminescence Readout Assay for Measuring Intracellular Calcium
A stable Chinese hamster ovary cell line expressing human TRPM8 was generated using tetracycline inducible T-REx™ expression system from Invitrogen, Inc. (Carlsbad, Calif.). […] Twenty four hours before the assay, cells were seeded in 96-well plates and TRPM8 expression was induced with 0.5 μg/ml tetracycline. On the day of the assay, culture media was removed and cells were incubated with assay buffer
Potential antagonists were added 2.5 min prior to the addition of agonist, 1 μM icilin, 100 μM L-menthol, or 1 min prior to the addition of cold buffer (<10° C.). The luminescence was measured by a CCD camera based FLASH-luminometer built by Amgen, Inc. A cooling device attached to FLASH luminometer was used for cold activation.

T1 sequence (Q7Z2W7 whole entry): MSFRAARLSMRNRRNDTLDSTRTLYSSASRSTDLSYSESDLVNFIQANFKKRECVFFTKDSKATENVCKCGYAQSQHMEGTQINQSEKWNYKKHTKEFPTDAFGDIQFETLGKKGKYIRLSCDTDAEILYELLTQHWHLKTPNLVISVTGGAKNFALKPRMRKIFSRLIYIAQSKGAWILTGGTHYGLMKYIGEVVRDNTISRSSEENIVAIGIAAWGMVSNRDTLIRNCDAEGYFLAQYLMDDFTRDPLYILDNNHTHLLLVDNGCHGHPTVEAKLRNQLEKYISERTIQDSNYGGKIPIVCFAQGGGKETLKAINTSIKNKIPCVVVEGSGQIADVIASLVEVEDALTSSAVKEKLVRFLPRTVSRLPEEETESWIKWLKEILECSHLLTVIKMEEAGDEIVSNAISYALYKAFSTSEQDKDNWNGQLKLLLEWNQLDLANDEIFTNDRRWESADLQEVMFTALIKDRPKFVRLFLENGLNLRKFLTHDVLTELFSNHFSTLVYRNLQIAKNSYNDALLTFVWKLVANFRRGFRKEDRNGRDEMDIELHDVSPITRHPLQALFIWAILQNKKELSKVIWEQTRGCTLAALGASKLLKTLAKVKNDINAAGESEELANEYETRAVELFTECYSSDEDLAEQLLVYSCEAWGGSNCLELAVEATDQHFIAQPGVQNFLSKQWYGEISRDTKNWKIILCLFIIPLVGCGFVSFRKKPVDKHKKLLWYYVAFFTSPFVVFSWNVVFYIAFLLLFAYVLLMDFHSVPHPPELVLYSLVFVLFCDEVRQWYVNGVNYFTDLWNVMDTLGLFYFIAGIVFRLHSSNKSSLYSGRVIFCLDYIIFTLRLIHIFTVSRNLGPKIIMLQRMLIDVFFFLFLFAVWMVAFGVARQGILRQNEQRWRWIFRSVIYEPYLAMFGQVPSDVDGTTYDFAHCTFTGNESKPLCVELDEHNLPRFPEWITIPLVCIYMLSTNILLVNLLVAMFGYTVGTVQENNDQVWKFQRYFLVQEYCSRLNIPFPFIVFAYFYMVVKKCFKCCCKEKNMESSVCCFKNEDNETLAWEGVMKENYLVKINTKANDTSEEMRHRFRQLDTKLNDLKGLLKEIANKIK

Compound	IC50
O=C(N[C@]1(c2ccc(OC(F)(F)F)cc2)CCOc2cccnc21)C1Cc2ccccc2N1 (stereo partly drawn) [Example 245, N-((S)-4-(4-(trifluoromethoxy)phenyl)-3,4-dihydro-2H-pyrano[3,2-b]pyridin-4-yl)indoline-2-carboxamide formate]	0.254 µM
O=C(N[C@]1(c2ccc(OC(F)(F)F)c(F)c2)CCOc2cccnc21)N1CCOCC1 [Example 101, (S)-N-(4-(3-fluoro-4-(trifluoromethoxy)phenyl)-3,4-dihydro-2H-pyrano[3,2-b]pyridin-4-yl)morpholine-4-carboxamide]	0.76 µM
O=C(N[C@]1(c2ccc(OC(F)(F)F)cc2)CCOc2cccnc21)c1nc2ccccc2[nH]1 [Example 241, (S)-N-(4-(4-(trifluoromethoxy)phenyl)-3,4-dihydro-2H-pyrano[3,2-b]pyridin-4-yl)-1H-benzo[d]imidazole-2-carboxamide formate]	0.769 µM
Cn1cc(C(=O)NC2(c3ccc(C(F)(F)F)cc3)CCOc3cccnc32)ccc1=O (stereo not shown) [Example 79, 1-methyl-6-oxo-N-(4-(4-(trifluoromethyl)phenyl)-3,4-dihydro-2H-pyrano[3,2-b]pyridin-4-yl)-1,6-dihydropyridine-3-carboxamide]	0.334 µM
O=C(N[C@]1(c2ccc(OC(F)(F)F)cc2)CCOc2cccnc21)c1cccc2[nH]cnc12 [Example 238, (S)-N-(4-(4-(trifluoromethoxy)phenyl)-3,4-dihydro-2H-pyrano[3,2-b]pyridin-4-yl)-1H-benzo[d]imidazole-4-carboxamide formate]	0.0414 µM
N#Cc1ccc(NC(=O)N[C@]2(c3ccc(OC(F)(F)F)c(F)c3)CCOc3cccnc32)cc1 [Example 68, (S)-1-(4-cyanophenyl)-3-(4-(3-fluoro-4-(trifluoromethoxy)phenyl)-3,4-dihydro-2H-pyrano[3,2-b]pyridin-4-yl)urea]	0.023 µM
O=C(N[C@]1(c2ccc(C(F)(F)F)cc2)CCOc2cccnc21)c1ccncc1 [Example 46, (S)-N-(4-(4-(trifluoromethyl)phenyl)-3,4-dihydro-2H-pyrano[3,2-b]pyridin-4-yl)isonicotinamide]	0.358 µM
Cn1ncc2cc(C(=O)N[C@]3(c4ccc(OC(F)(F)F)cc4)CCOc4cccnc43)ccc21 [Example 262, (S)-1-methyl-N-(4-(4-(trifluoromethoxy)phenyl)-3,4-dihydro-2H-pyrano[3,2-b]pyridin-4-yl)-1H-indazole-5-carboxamide formate]	0.007 µM
Cn1cc(C(=O)N[C@]2(c3ccc(OC(F)(F)F)cc3)CCOc3cccnc32)c2ccccc21 [Example 257, (S)-1-methyl-N-(4-(4-(trifluoromethoxy)phenyl)-3,4-dihydro-2H-pyrano[3,2-b]pyridin-4-yl)-1H-indole-3-carboxamide formate]	0.059 µM
O=C(O)c1ccc(C(=O)N[C@]2(c3ccc(OC(F)(F)F)c(F)c3)CCOc3cccnc32)s1 [Example 336, (S)-5-((4-(3-fluoro-4-(trifluoromethoxy)phenyl)-3,4-dihydro-2H-pyrano[3,2-b]pyridin-4-yl)carbamoyl) thiophene-2-carboxylic acid 2,2,2-trifluoroacetate]	0.086 µM
CC(=O)Nc1ccc(C(=O)N[C@]2(c3ccc(C(F)(F)F)cc3)CCOc3cccnc32)nc1 [Example 43, (S)-5-acetamido-N-(4-(4-(trifluoromethyl)phenyl)-3,4-dihydro-2H-pyrano[3,2-b]pyridin-4-yl)picolinamide]	0.111 µM
COc1ccc2c(c1)C=C(C(=O)N[C@]1(c3ccc(OC(F)(F)F)cc3)CCOc3cccnc31)CO2 [Example 278, (S)-6-methoxy-N-(4-(4-(trifluoromethoxy)phenyl)-3,4-dihydro-2H-pyrano[3,2-b]pyridin-4-yl)-2H-chromene-3-carboxamide fonnate]	0.068 µM
CNC(=O)c1ccc(C(=O)N[C@]2(c3ccc(OC(F)(F)F)c(F)c3)CCOc3cccnc32)cn1 [Example 63, (S)-N5-(4-(3-fluoro-4-(trifluoromethoxy)phenyl)-3,4-dihydro-2H-pyrano[3,2-b]pyridin-4-yl)-N2-methylpyridine-2,5-dicarboxamide]	0.019 µM
O=C(N[C@]1(c2cccc(OC(F)(F)F)c2)CCOc2cccnc21)c1ccccc1 (single isomer, unassigned) [Example 17]	0.06 µM
COC(=O)c1ccc(C(=O)N[C@]2(c3ccc(OC(F)(F)F)cc3F)CCOc3cccnc32)nc1 [Example 174, (S)-methyl 6-((4-(2-fluoro-4-(trifluoromethoxy)phenyl)-3,4-dihydro-2H-pyrano[3,2-b]pyridin-4-yl)carbamoyl) nicotinate]	0.128 µM
O=C(N[C@]1(c2ccc(OC(F)(F)F)c(F)c2)CCOc2cccnc21)N1CCCCC1 [Example 98, (S)-N-(4-(3-fluoro-4-(trifluoromethoxy)phenyl)-3,4-dihydro-2H-pyrano[3,2-b]pyridin-4-yl)piperidine-1-carboxamide]	0.023 µM
COc1ccc(C(=O)N[C@]2(c3ccc(C(F)(F)F)cc3)CCOc3cccnc32)cn1 [Example 32, (S)-6-methoxy-N-(4-(4-(trifluoromethyl)phenyl)-3,4-dihydro-2H-pyrano[3,2-b]pyridin-4-yl)nicotinamide]	0.051 µM

Now from value to compound:

IC50	Compound
0.159 µM	O=C(O)c1ccc(C(=O)N[C@]2(c3ccc(OC(F)(F)F)c(F)c3)CCOc3cccnc32)[nH]1 [Example 306, (S)-5-((4-(3-fluoro-4-(trifluoromethoxy)phenyl)-3,4-dihydro-2H-pyrano[3,2-b]pyridin-4-yl)carbamoyl)-1H-pyrrole-2-carboxylic acid]
0.34 µM	O=C(N[C@]1(c2ccc(-c3cc(F)ccc3CO)cc2)CCOc2cccnc21)c1ccc(F)cc1 [Example 140, (S)-4-fluoro-N-(4-(5′-fluoro-2′-(hydroxymethyl)-[1,1′-biphenyl]-4-yl)-3,4-dihydro-2H-pyrano[3,2-b]pyridin-4-yl)benzamide]
0.316 µM	CC(=O)Nc1cc(C(=O)N[C@]2(c3ccc(OC(F)(F)F)c(F)c3)CCOc3cccnc32)ccc1C(=O)O [Example 323, (S)-2-acetamido-4-((4-(3-fluoro-4-(trifluoro-methoxy)phenyl)-3,4-dihydro-2H-pyrano[3,2-b]pyridin-4-yl)carbamoyl) benzoic acid]
2.4 µM	CC(C)(C)[S@@+]([O-])N[C@]1(c2ccc(OC(F)(F)F)c(F)c2)CCOc2cccnc21 [Example 152, (R)—N—((S)-4-(3-fluoro-4-(trifluoromethoxy)phenyl)-3,4-dihydro-2H-pyrano[3,2-b]pyridin-4-yl)-2-methylpropane-2-sulfinamide]
0.118 µM	O=C(N[C@]1(c2ccc(OC(F)(F)F)c(F)c2)CCOc2cccnc21)c1ccc2cc(C(=O)O)[nH]c2c1 [Example 325, (S)-6-((4-(3-fluoro-4-(trifluoro-methoxy)phenyl)-3,4-dihydro-2H-pyrano[3,2-b]pyridin-4-yl)carbamoyl)-1H-indole-2-carboxylic acid]
0.206 µM	O=S(=O)(N[C@]1(c2ccc(OC(F)(F)F)c(F)c2)CCOc2cccnc21)c1ccccc1 [Example 76, (S)—N-(4-(3-fluoro-4-(trifluoromethoxy)phenyl)-3,4-dihydro-2H-pyrano[3,2-b]pyridin-4-yl)benzenesulfonamide 2,2,2-trifluoroacetate]
0.155 µM	Cc1cc(C(=O)N[C@]2(c3ccc(OC(F)(F)F)c(F)c3)CCOc3cccnc32)cc(C)c1C(=O)O [Example 311, (S)-4-((4-(3-fluoro-4-(trifluoro-methoxy)phenyl)-3,4-dihydro-2H-pyrano[3,2-b]pyridin-4-yl)carbamoyl)-2,6-dimethylbenzoic acid]
1.69 µM	O=C(N[C@]1(c2ccc(OC(F)(F)F)cc2)CCOc2cccnc21)c1nnc[nH]1 [Example 212, (S)-N-(4-(4-(trifluoromethoxy)phenyl)-3,4-dihydro-2H-pyrano[3,2-b]pyridin-4-yl)-4H-1,2,4-triazole-3-carboxamide formate]
0.05 µM	NS(=O)(=O)c1ccc(C(=O)N[C@]2(c3ccc(OC(F)(F)F)c(F)c3)CCOc3cccnc32)cc1 [Example 184, (S)-N-(4-(3-fluoro-4-(trifluoromethoxy)phenyl)-3,4-dihydro-2H-pyrano[3,2-b]pyridin-4-yl)-sulfamoylbenzamide]
0.081 µM	O=C(N[C@]1(c2ccc(OC(F)(F)F)cc2)CCOc2cccnc21)c1ccns1 [Example 213, (S)-N-(4-(4-(trifluoromethoxy)phenyl)-3,4-dihydro-2H-pyrano[3,2-b]pyridin-4-yl)isothiazole-5-carboxamide formate]
0.015 µM	O=C(N[C@]1(c2ccc(OC(F)(F)F)cc2)CCOc2cccnc21)c1ccc2cnccc2c1 [Example 250, (S)-N-(4-(4-(trifluoromethoxy)phenyl)-3,4-dihydro-2H-pyrano[3,2-b]pyridin-4-yl)isoquinoline-6-carboxamide formate]
0.025 µM	O=C(N[C@]1(c2ccc(OC(F)(F)F)cc2)CCOc2cccnc21)c1ccc2cccnc2c1 [Example 254, (S)-N-(4-(4-(trifluoromethoxy)phenyl)-3,4-dihydro-2H-pyrano[3,2-b]pyridin-4-yl)quinoline-7-carboxamide fonnate]
0.038 µM	O=C(N[C@]1(c2ccc(C(F)(F)F)cc2)CCOc2cccnc21)c1c[nH]c(=O)cn1 [Example 45, (S)-5-oxo-N-(4-(4-(trifluoromethyl)phenyl)-3,4-dihydro-2H-pyrano[3,2-b]pyridin-4-yl)-4,5-dihydropyrazine-2-carboxamide]
0.058 µM	CC(C)(C)OC(=O)N[C@]1(c2ccc(OC(F)(F)F)c(F)c2)CCOc2cccnc21 [Example 78, (S)-tert-butyl (4-(3-fluoro-4-(trifluoromethoxy)phenyl)-3,4-dihydro-2H-pyrano[3,2-b]pyridin-4-yl)carbamate]
